# Measured values: PubChem BioAssay (NCI)
#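 Step 1: Grow cells in 96-well plates. Step 2: Expose to compound for 48 hours at 5 concentrations. Step 3: Interpolate endpoints linearly; if unreached, use highest concentration. TGI marks complete inhibition of growth.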
# Test system: RXF-631 renal
# Test: NCI tumour cell line growth inhibition, 48 h
row,Structure (SMILES),TGI
1,CC(C)(C)N1C(C(=O)c2ccccc2)C1c1ccccc1 (configuration not stated),> 100 µM
2,C#CCOc1c(C(=O)OCC)c(=O)n(C)c2ccccc12,> 100 µM
